Results reported in article PMC8787483 (mBio, 2022).

Target: Gnp2 (CR_09920W) (Candida albicans, UniProt A0A1D8PU37)
Details: 10 mM proline as sole carbon source, YNB, ammonium sulfate, pH 4.5, 37 °C, 6 h

Gnp2 (CR_09920W), sequence (A0A1D8PU37 entry or part of it): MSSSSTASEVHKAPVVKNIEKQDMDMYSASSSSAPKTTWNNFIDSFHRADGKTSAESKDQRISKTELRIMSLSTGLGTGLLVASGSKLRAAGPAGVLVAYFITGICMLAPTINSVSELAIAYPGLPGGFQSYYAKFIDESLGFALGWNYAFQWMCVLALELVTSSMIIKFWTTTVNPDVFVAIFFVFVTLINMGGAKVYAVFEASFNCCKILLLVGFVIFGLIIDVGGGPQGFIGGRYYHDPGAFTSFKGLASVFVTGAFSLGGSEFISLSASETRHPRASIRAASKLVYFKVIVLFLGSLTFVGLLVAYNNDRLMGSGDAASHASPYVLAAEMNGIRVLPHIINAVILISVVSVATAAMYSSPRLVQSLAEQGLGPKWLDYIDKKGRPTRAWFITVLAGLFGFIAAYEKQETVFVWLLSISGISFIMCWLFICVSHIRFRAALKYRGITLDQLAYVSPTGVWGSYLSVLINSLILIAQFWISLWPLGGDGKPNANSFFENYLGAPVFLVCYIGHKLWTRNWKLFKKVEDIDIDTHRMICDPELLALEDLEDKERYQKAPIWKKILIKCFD

## O=C(O)[C@@H]1CCCN1 [proline]
  LC-MS of extracellular proline, wild type vs gnp2 deletion vs complemented cells: extracellular proline concentration was significantly reduced in the wild type and the GNP2 complemented strain
